Publication PMC4231751, “Highly potent dUTPase inhibition by a bacterial repressor protein reveals a novel mechanism for gene expression control” (Nucleic Acids Research, 2014)

Biological target: T1, Φ11 dUTPase (Φ11DUT) (Staphylococcus phage phi 11, UniProt Q8SDV3)
T1 construct: tag-free, expressed from pETDuet-1; Q-sepharose and Superdex 75; homotrimer
Assay: phenol red proton release assay, […] nm
Format: biochemical
Details: 30 μM dUTP, 10 nM enzyme, 1 mM Hepes pH 7.5, 5 mM MgCl2, 150 mM KCl, 293 K

## O=c1ccn([C@H]2C[C@H](O)[C@@H](COP(=O)(O)OP(=O)(O)OP(=O)(O)O)O2)c(=O)[nH]1 [dUTP]
  phenol red proton release assay, 559 nm: Proton release during the transformation of dUTP into dUMP and PPi was followed continuously
